We go through 16 molecules from patent publication US8609836B2, “4-aryl-2-anilino-pyrimidines” (Janssen Pharmaceutica NV, priority 2008, dated 2013).

The target in one assay is PLK4 (h) (Homo sapiens, UniProt O00444). Put plainly: PLK-4 human kinase inhibition, scintillation proximity assay (SPA). The assay is classed as biochemical. Conditions: read-out: PLK4 pIC50 (converted). A general note: Scintillation proximity formats need no separation of bound from free tracer.
The next assay concerns MDA-MB-231. Nature of the assay: Cellular proliferation assay (Alamar blue), MDA-MB-231. Conditions: Homo sapiens, 10% FCS, 72 hours with compound, Alamar blue 24 h, read-out: MDA/MB231 (cellular proliferation assay, Table 4) (converted). The assay is classed as cell-based. The method, boiled down:
(§1)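 Alamar blue conversion, quantified fluorimetrically (544 nm/590 nm), gave viable cell number relative to untreated controls; dye time 4 h for HCT-116, 6 h for U87-MG, 24 h for A2780 and MDA-MB-231. Compound exposure lasted 72 h, after 24 h pre-seeding, with 10% FCS, 37 °C, 5% CO2.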

The test system of the next assay is A2780. Put plainly: Cellular proliferation assay (Alamar blue), A2780. The assay is classed as cell-based. The conditions noted are these: Homo sapiens, 10% FCS, 72 hours with compound, Alamar blue 24 h, read-out: A2780 (cellular proliferation assay, Table 4) (converted). The method, boiled down: as §1
For orientation: Resazurin is reduced to fluorescent resorufin, in cell work by metabolically active cells.

Another assay has as its target PLK2 (h) (Homo sapiens, UniProt Q9NYY3). Put plainly: PLK2 human kinase inhibition, SPA. In kind it is biochemical. The conditions noted are these: read-out: PLK2 pIC50 (converted). The method, boiled down: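 33P incorporation into a biotinylated peptide (2 μM) was captured on streptavidin PVT beads and imaged on Leadseeker. Enzyme at 30 μg/ml, ATP 0.1 μM with 2 nM [γ-33P]ATP, Hepes pH 8.0 with MnCl2 and DTT. Incubation was 20 min at room temperature.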

The test system of another assay is HCT-116. Nature of the assay: Cellular proliferation assay (Alamar blue), HCT-116. The assay is classed as cell-based. The conditions noted are these: Homo sapiens, 10% FCS, 72 hours with compound, Alamar blue 4 h. The procedure, abridged: as §1
For another assay, the target named is GSK3β (h) (Homo sapiens, UniProt P49841). Put plainly: GSK-3β human kinase inhibition, SPA. In kind it is biochemical. Conditions: read-out: GSK3b pIC50 (converted). The procedure, abridged: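 Radiometric: 33P-labelled peptide captured on streptavidin SPA beads after EDTA stop and imaged on Leadseeker. Reaction ran 1 h at RT, 1 μM cold ATP with 2 nM [γ-33P]ATP, 1 μM biotin-peptide substrate, human GSK3β 1 μg/ml, pH 7.4 Tris buffer.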
Chain of GSK3β (h) (P49841 whole entry): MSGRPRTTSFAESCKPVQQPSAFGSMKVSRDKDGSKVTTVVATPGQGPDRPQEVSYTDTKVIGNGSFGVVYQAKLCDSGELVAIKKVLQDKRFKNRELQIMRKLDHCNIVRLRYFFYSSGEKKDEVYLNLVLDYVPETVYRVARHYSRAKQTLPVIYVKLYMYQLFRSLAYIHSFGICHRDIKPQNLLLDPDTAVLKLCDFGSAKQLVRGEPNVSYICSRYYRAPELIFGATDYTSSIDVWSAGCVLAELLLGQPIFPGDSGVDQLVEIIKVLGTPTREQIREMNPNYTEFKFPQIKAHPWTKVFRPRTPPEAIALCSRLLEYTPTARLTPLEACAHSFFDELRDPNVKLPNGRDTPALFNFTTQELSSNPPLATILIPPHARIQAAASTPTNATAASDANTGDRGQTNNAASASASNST

For the next assay, the system named is U87-MG. Nature of the assay: Cellular proliferation assay (Alamar blue), U87-MG. The assay is classed as cell-based. Conditions: Homo sapiens, U-87 MG; 10% FCS; 72 hours with compound; Alamar blue 6 h; read-out: U87-MG (cellular proliferation assay, Table 4) (converted). The method, boiled down:
as §1

In the next assay the target is CDK1/CyclinB (h) (Homo sapiens, UniProt P06493). Put plainly: CDK1/CyclinB human kinase inhibition, Invitrogen's FRET assay (Z'lyte). The assay is classed as biochemical. The conditions noted are these: read-out: CDK1 pIC50 (converted). The procedure, abridged: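 Read-out is the 460 nm/538 nm emission ratio (390 nm excitation) after a 60 min protease development step. Before that, 10 μM ATP and 2 μM Z'lyte Ser/Thr peptide 12 react 60 min at room temperature with 0.2 μg/ml human CDK1/CyclinB in Hepes pH 7.5 containing MgCl2, EGTA and Brij-35.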
Chain of CDK1/CyclinB (h) (P06493 whole entry): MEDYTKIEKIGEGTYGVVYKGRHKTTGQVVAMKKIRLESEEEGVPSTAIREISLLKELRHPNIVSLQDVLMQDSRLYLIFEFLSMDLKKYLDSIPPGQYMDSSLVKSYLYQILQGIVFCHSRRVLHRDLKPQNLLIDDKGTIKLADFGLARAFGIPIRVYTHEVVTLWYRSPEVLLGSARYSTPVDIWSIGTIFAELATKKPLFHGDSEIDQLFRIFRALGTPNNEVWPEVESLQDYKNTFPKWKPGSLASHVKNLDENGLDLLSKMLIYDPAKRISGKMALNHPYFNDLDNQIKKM
Chain of CDK1/CyclinB (h) (P14635 whole entry partner): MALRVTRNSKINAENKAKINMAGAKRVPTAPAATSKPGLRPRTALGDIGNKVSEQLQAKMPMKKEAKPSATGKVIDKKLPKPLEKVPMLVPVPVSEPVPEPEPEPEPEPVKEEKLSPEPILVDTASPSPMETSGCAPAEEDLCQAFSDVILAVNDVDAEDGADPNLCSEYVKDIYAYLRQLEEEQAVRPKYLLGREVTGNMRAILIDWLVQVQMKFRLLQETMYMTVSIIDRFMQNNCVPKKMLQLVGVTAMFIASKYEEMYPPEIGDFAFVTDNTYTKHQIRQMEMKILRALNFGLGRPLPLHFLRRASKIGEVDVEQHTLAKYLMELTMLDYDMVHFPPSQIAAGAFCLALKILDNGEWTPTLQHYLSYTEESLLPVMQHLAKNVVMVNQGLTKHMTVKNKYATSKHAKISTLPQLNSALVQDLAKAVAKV

The target in the next assay is PLK1 T210D (h) (Homo sapiens, UniProt P53350, T210D). Nature of the assay: PLK1 human kinase inhibition, SPA. The assay is classed as biochemical. The conditions noted are these: read-out: PLK1 pIC50 (converted). The procedure, abridged:
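Kinase incubated 40 min at room temperature with 0.1 μM ATP (2 nM [γ-33P]ATP tracer), 2 μM biotinylated peptide, pH 8.0 Hepes buffer with 2 mM MnCl2 and 1 mM DTT; enzyme at 0.125 ng/ml. Stopped with EDTA; 33P-peptide bound to streptavidin scintillant beads and imaged.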

Each structure is given as a SMILES string.

Chain of PLK1 T210D (h) (P53350 whole entry T210D): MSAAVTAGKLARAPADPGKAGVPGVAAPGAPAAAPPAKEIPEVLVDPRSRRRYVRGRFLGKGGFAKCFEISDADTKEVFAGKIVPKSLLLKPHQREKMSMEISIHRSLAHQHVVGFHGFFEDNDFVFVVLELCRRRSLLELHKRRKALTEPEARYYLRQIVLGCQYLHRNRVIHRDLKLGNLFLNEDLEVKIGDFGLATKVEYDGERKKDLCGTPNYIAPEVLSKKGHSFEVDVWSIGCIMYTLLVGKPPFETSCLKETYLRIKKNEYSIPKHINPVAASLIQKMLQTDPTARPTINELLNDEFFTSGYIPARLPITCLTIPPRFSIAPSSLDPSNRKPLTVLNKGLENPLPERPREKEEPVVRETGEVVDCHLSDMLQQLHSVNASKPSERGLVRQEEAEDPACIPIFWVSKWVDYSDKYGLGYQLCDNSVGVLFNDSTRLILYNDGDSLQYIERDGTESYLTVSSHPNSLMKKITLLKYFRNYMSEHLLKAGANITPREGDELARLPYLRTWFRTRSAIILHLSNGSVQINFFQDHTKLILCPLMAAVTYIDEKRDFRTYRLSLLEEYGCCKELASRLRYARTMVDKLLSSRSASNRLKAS
Chain of PLK4 (h) (O00444 whole entry): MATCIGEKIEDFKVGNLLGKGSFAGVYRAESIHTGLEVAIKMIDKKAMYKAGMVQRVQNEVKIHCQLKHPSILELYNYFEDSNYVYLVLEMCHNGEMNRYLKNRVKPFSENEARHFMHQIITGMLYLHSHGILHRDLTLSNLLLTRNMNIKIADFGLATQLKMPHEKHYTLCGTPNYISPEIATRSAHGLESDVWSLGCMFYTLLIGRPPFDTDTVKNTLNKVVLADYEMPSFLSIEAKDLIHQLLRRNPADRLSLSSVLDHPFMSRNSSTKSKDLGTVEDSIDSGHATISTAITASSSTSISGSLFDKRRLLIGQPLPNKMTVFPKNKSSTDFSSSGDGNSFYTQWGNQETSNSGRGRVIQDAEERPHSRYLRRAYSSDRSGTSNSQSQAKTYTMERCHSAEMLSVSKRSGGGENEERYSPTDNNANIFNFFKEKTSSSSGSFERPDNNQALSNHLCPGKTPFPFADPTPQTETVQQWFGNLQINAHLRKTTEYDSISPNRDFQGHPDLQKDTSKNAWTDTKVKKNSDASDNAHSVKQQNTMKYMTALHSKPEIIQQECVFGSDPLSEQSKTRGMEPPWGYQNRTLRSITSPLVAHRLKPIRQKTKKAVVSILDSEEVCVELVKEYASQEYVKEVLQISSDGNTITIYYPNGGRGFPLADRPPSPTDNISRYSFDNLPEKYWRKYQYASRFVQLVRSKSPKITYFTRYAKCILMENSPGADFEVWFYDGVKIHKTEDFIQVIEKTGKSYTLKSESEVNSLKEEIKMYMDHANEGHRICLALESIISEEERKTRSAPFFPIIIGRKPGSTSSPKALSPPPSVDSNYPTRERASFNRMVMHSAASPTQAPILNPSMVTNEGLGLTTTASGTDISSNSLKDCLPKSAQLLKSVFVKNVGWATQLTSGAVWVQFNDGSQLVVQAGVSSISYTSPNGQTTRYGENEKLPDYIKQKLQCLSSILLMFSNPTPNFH
Chain of PLK2 (h) (Q9NYY3 whole entry): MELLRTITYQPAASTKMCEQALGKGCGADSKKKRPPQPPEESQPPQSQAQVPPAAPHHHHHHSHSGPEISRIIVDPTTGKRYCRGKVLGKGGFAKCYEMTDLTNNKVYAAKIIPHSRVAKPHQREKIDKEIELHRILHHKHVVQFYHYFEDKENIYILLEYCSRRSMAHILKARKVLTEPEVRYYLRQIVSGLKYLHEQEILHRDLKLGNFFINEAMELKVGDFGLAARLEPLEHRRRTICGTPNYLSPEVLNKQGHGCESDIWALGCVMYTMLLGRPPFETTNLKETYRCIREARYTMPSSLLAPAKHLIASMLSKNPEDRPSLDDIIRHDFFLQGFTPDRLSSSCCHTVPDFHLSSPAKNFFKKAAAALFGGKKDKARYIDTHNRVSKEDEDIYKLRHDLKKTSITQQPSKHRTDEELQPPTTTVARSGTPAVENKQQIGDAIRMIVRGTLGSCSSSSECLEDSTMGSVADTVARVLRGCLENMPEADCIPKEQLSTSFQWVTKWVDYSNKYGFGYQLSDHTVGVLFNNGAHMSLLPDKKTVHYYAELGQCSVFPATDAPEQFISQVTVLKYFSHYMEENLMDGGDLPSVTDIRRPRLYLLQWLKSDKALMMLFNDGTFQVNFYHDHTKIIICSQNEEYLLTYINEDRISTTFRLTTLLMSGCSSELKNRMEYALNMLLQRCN

With `CN(C)CCNC(=O)c1cc2cc(c1)Nc1nccc(n1)-c1cccc(c1)CNC(=O)[C@@H]1CCCN1C2` [Compound 39], the IC50 on PLK4 (h) is 0.282 µM; with MDA-MB-231, 6.76 µM; in the assay on A2780, 2.09 µM; on PLK2 (h), over 10 µM; with HCT-116, 1.23 µM; on GSK3β (h), 0.363 µM. The IC50 was 1.07 µM in the assay with U87-MG, 1.45 µM at CDK1/CyclinB (h) and over 10 µM on PLK1 T210D (h).

For the molecule `COc1ccc2cc1CN(C)CCNC(=O)CN1CCN(CC1)Cc1cc(NCCc3ccccc3)cc(c1)Nc1nccc-2n1` [Compound 138], the IC50 on PLK4 (h) is 2.14 µM; with MDA-MB-231, 5.89 µM; in the assay on A2780 it was 5.5 µM; at PLK2 (h), over 3.02 µM; with HCT-116, 3.09 µM; at GSK3β (h) it was over 10 µM. In addition, the figures for the IC50 with U87-MG, on CDK1/CyclinB (h) and at PLK1 T210D (h) were 3.24 µM, over 10 µM and over 10 µM, respectively.

In the case of `O=C1NCc2cccc(c2)-c2ccnc(n2)Nc2cccc(c2)CN2C[C@@H](O)C[C@@H]12` [Compound 45], the IC50 was 0.417 µM at PLK4 (h); 6.76 µM in the assay with MDA-MB-231; 1.66 µM with A2780; over 10 µM on PLK2 (h); 0.295 µM in the assay with HCT-116; 0.0724 µM at GSK3β (h). Also, the IC50 in the assay on U87-MG was 0.912 µM; at CDK1/CyclinB (h), 0.0708 µM; on PLK1 T210D (h), over 10 µM.

Regarding `O=C1CN2CCN(CC2)Cc2cc(ccc2N2CCOCC2)Nc2nccc(n2)-c2cccc(c2)CN1` [Compound 20], the IC50 on PLK4 (h) is 5.25 µM; in the assay with MDA-MB-231, over 3.02 µM; in the assay on A2780, over 10 µM; at PLK2 (h), over 10 µM; in the assay with HCT-116 it was over 10 µM; at GSK3β (h), 6.03 µM. Besides, the IC50 in the assay on U87-MG, on CDK1/CyclinB (h) and at PLK1 T210D (h) was over 10 µM each time.

Consider `O=C1NCc2cccc(c2)-c2ccnc(n2)Nc2ccc(cc2)CN2CCC[C@@H]12` [Compound 54], for which the IC50 at PLK4 (h), with MDA-MB-231, in the assay with A2780, on PLK2 (h), in the assay on HCT-116 and at GSK3β (h) was over 10 µM in each case. The IC50 in the assay with U87-MG, at CDK1/CyclinB (h) and on PLK1 T210D (h) was over 10 µM each time.

Consider `CN1CCNC(=O)CN2CCN(CC2)Cc2cccc(c2)Nc2nccc(n2)-c2ccc(cc2)C1` [Compound 134], for which the IC50 is 1.62 µM at PLK4 (h); over 10 µM in the assay on MDA-MB-231; over 10 µM in the assay on A2780; 2.88 µM at PLK2 (h); 5.25 µM in the assay with HCT-116; 1.32 µM at GSK3β (h). The IC50 with U87-MG was over 10 µM; on CDK1/CyclinB (h) it was 4.79 µM; on PLK1 T210D (h), over 10 µM.

Turning to `COc1ccc2cc1CN(C)CCNC(=O)[C@H](CO)NCc1cc(Br)cc(c1)Nc1nccc-2n1` [Compound 119], the IC50 on PLK4 (h) is 3.89 µM; in the assay on MDA-MB-231, over 10 µM; with A2780 it was over 10 µM; at PLK2 (h), over 10 µM; with HCT-116, 2.29 µM; at GSK3β (h), 6.03 µM. Also, the IC50 in the assay on U87-MG was 8.71 µM; on CDK1/CyclinB (h) it was over 10 µM; on PLK1 T210D (h), over 10 µM.

Turning to `O=C1CN2CCN(CC2)Cc2ccc(cc2)Nc2nccc(n2)-c2cccc(c2)CN1` [Compound 193], the IC50 on PLK4 (h) is over 10 µM; with MDA-MB-231, over 10 µM; in the assay with A2780 it was over 10 µM; on PLK2 (h), over 10 µM; with HCT-116, over 10 µM; at GSK3β (h), 3.24 µM. The IC50 in the assay with U87-MG, on CDK1/CyclinB (h) and at PLK1 T210D (h) was over 10 µM each time.

Turning to `CC(C)Nc1cc2cc(c1)Nc1nccc(n1)-c1ccc(cc1)CN(C)CCCNC(=O)[C@@H]1CCCN1C2` [Compound 151], the IC50 on PLK4 (h) is 0.646 µM; in the assay with MDA-MB-231, over 10 µM; in the assay on A2780, over 10 µM; at PLK2 (h) it was over 3.02 µM; in the assay on HCT-116 it was 3.55 µM; on GSK3β (h) it was over 10 µM. For the same molecule, the IC50 with U87-MG is 7.59 µM; on CDK1/CyclinB (h) it was over 10 µM; on PLK1 T210D (h), over 10 µM.

Take `O=C1CN2CCN(CC2)Cc2ccc(Cl)c(c2)Nc2nccc(n2)-c2cccc(c2)CN1` [Compound 195]: the IC50 at PLK4 (h), in the assay on MDA-MB-231, in the assay on A2780, on PLK2 (h), in the assay on HCT-116 and at GSK3β (h) was over 10 µM throughout. The IC50 in the assay on U87-MG, on CDK1/CyclinB (h) and on PLK1 T210D (h) was over 10 µM each time.

Turning to `CN1CCC(NC(=O)c2ccc3cc2CN2CCC[C@H]2C(=O)NCc2cccc(c2)-c2ccnc(n2)N3)CC1` [Compound 47], the IC50 was 0.646 µM at PLK4 (h); 5.13 µM with MDA-MB-231; 3.72 µM in the assay on A2780; over 10 µM at PLK2 (h); 2.45 µM in the assay on HCT-116; 0.398 µM on GSK3β (h). Besides, the IC50 was 7.08 µM in the assay with U87-MG, 2 µM on CDK1/CyclinB (h) and over 10 µM on PLK1 T210D (h).

With `COc1ccc2cc1CN(C)CCCNC(=O)[C@@H]1CCCN1Cc1cc(NCCc3ccccc3)cc(c1)Nc1nccc-2n1` [Compound 167], the IC50 at PLK4 (h) was 3.55 µM; with MDA-MB-231 it was 6.46 µM; with A2780 it was 2.75 µM; on PLK2 (h), over 10 µM; in the assay with HCT-116, 2.24 µM; on GSK3β (h), over 10 µM. In addition, the IC50 is 3.72 µM in the assay with U87-MG, over 10 µM at CDK1/CyclinB (h) and over 10 µM on PLK1 T210D (h).

Regarding `COc1ccc2cc1CN(C)CCNC(=O)C1CCN(CC1)Cc1cc(NCCc3ccccc3)cc(c1)Nc1nccc-2n1` [Compound 74], the IC50 on PLK4 (h) is 2.95 µM; with MDA-MB-231, 5.89 µM; with A2780, 3.02 µM; on PLK2 (h), over 10 µM; with HCT-116, 4.68 µM; on GSK3β (h), over 10 µM. Further, the IC50 was 3.98 µM in the assay on U87-MG, over 10 µM at CDK1/CyclinB (h) and over 10 µM at PLK1 T210D (h).

As to `O=C1CN2CCN(CC2)Cc2cc(ccc2N2CCOCC2)Nc2nccc(n2)-c2cccc(c2)OCCN1` [Compound 102], the IC50 on PLK4 (h) is 0.794 µM; in the assay on MDA-MB-231, 6.61 µM; in the assay with A2780, 6.46 µM; at PLK2 (h) it was over 10 µM; with HCT-116 it was 1.29 µM; on GSK3β (h), 0.24 µM. Besides, the IC50 was 3.09 µM with U87-MG, 2.57 µM on CDK1/CyclinB (h) and over 10 µM on PLK1 T210D (h).

`O=C1NCc2cccc(c2)-c2ccnc(n2)Nc2cccc(c2)CN[C@H]1CO` [Compound 187]: the IC50 on PLK4 (h) was 1.07 µM; with MDA-MB-231 it was 7.94 µM; with A2780, 5.5 µM; at PLK2 (h), over 10 µM; in the assay with HCT-116 it was 1.35 µM; on GSK3β (h), 0.0537 µM. For the same molecule, the values for the IC50 in the assay on U87-MG, at CDK1/CyclinB (h) and at PLK1 T210D (h) were over 10 µM, 0.646 µM and over 10 µM, respectively.

Turning to `COCCNC(=O)c1cc2cc(c1)Nc1nccc(n1)-c1cccc(c1)CNC(=O)[C@@H]1CCCN1C2` [Compound 44], the IC50 is 0.407 µM on PLK4 (h); over 10 µM with MDA-MB-231; 6.03 µM with A2780; over 10 µM on PLK2 (h); 1.82 µM in the assay on HCT-116; 0.166 µM at GSK3β (h). Moreover, the results for the IC50 in the assay with U87-MG, on CDK1/CyclinB (h) and on PLK1 T210D (h) were 1.91 µM, 0.427 µM and over 10 µM, respectively.
